Measured values from patent US6818215B2, “Antibodies to senescent cell-derived inhibiters of DNA synthesis” (priority 1991, dated 2004).
Blank lines part the entries; values can stand above or below the molecule they belong to.

Legend:
SDI-1 message in TE85 = assay: SDI-1 message level after agents in cells lacking functional p53; assay type: cell-based, human; conditions: TE85 (mutant p53); agents of Table 10
Protocol: (§1) To evaluate the effect of DNA damaging agents on SDI mRNA production, normal human neonatal foreskin fibroblast cells (strain HCA2); an immortalized cell line (TE85, obtainable from the American Type Culture Collection, Rockville, Md., US), and the above-described MDAH 041 cell lines were employed. All cells were cultured in Eagle's minimal essential medium with Earl's salts plus 10% fetal bovine serum (Gibco BRL, Gaithersburg, Md., US) in 5% CO2 at 37° C., or in Hanks salts plus 10% fetal bovine serum at 37° C. HCA2 cells achieve approximately 80 population doublings before becoming senescent. The cells were used at population doubling 27 or less.
(§2) Tritiated thymidine was added 16 hours following each such treatment and the cells were incubated for 8 hours, fixed and processed for autoradiography; as described above. RNA was harvested 4 or 24 hours post treatment using RNAzol B (Cinna/Biotecx, Houston, Tex.) according to the manufacturer's protocol. 10-20 μg of RNA was separated on a 1.2% agarose gel with 20% formaldehyde, transferred to a Gene screen plus (EN, Boston, Mass.) membrane, probed, and quantitated. Fold induction was determined by comparing treated samples with untreated controls. Controls were mock treated cells put through the same washing, media change, transportation, and inadvertent temperature fluctuation as those receiving treatment. Controls for agents dissolved in ethanol or dimethyl sulfoxide were exposed to the same concentration of the solvent alone. SDI-1 RNA values were normalized to GAPBH levels.
(§3) This gene also requires functional p53 for induction by γ-irradiation but not by most other agents (Zhan, Q. et al., Molec. Cell. Biol. 13:4242-4250 (1993)). GADD45 is a member of a family of genes that were identified based upon their induction by both growth arrest and DNA damage (Fornace, A. J. et al., Molec. Cell. Biol. 9:4196-4203 (1989)). […] The above methods can be used to identifiy such additional regulators.

[1] = tested on: normal human neonatal foreskin fibroblast cells (strain HCA2); assay: Growth arrest by tritiated thymidine incorporation after DNA damaging / growth arrest agents; assay type: cell-based; conditions: doses as in Table 10; tritiated thymidine added 16 hours after treatment for 8 hours
Protocol: as §1
(§4) For UV irradiation, cells were cultured in 150 cm^2 tissue culture dishes. Immediately prior to treatment the medium was removed and the dishes, without lids, were placed in a Stratagene (La Jolla, Calif., US) StratalinkerUV cross-linking device and irradiated with a dose of 30 J/m^2. Fresh serum-supplemented medium was then added and the cells were incubated at 37° C., 5% CO2. γ-irradiation was performed on cells in complete cell culture medium in 25 cm^2 tissue culture flasks, using a fixed ^137Cs source. The dose rate was 4.21 Gy/min. Exposure was to 4 Gy.
as §2

SDI-1 mRNA = assay: Northern analysis of SDI-1 RNA after DNA damaging / growth arrest agents; conditions: bleomycin 75 μg/ml 4 hr; etoposide 400 μM 8 hr; H2O2 400 μM 1 hr; MMS 100 μg 4 hr; Mitomycin C 5 μg/ml 30 hr; CdCl2 250 μM 1 hr; hydroxyurea 2 mM 24 hr; prostaglandin A2 10 μg/ml 24 hr
Protocol: as §1, §4, §2

cyclin/cdk2 complexes = biological target: T1, cyclin/cdk2 complexes (Homo sapiens, UniProt P24941); assay: Histone H1 kinase activity of cyclin/cdk2 complexes immunoprecipitated from HeLa cell extracts; assay type: biochemical; conditions: complexes immunoprecipitated by cdk2 antisera
T1 construct: immunoprecipitated from HeLa cell extracts by cdk2 antisera; endogenous in cells; host or cells: HeLa cell extracts, immunoprecipitated with cdk2 antisera
Excerpt: The physiological significance of inhibition of cell proliferation by overexpression of SDI-1 is strengthened by the finding that SDI-1 can inhibit the kinase activity of cyclin/cdk2 complexes.
[…]

young cells = assay: Cellular uptake of GST-SDI-1 fusions and quiescence; assay type: cell-based
[2] = tested on: SDI-1 mRNA in HepG2 cells; assay: Northern blot of SDI-1 mRNA (SDI-1/GAPDH) in 9NC-treated cells; assay type: cell-based, Human
Protocol: Therefore, initial studies to evaluate the levels of SDI-1 were performed with low doses of 9NC. Total RNA was isolated from HepG2 cells treated with 5 nM and 20 nM 9NC for 72 h and the levels of SDI-1 mRNAs expression in cells were examined by Northern blot hybridization analysis. […] The relative amount of SDI-1 mRNA in each sample was calculated as the ratio of SDI-1/GAPDH.
Caffeine abolishes G2 cell cycle checkpoint induced by DNA-damaging agents (Traganos, F. et al., Canc. Res. 53:4613-4618 (1993); Lau, C. C. et al., Proc. Natl. Acad. Sci. (U.S.A.) 79:2942-2946 (1982)). To assess the specificity of SDI-1 induction by 9NC, the levels of SDI-1 expressions were evaluated via Northern blot analysis after simultaneous addition of caffeine (1 mM) and 9NC. […] To establish the kinetics of 9NC-induced upregulation of SDI-1 gene, the cells cultured for 24 h in control medium were treated with 20 nM of 9NC for 0.5 h, 1.5 h, 3 h, 6 h, 12 h, and 24 h respectively.

[3] = tested on: SDI-1 message in MDAH 041; assay: SDI-1 message level after agents in cells lacking functional p53; assay type: cell-based, human; conditions: MDAH 041 (no p53); agents of Table 10
Protocol: as §1, §2, §3

HepG2 cells [4] = assay: Cell number by cell counter; assay type: cell-based, Human; conditions: 20 nM; 72 h
Protocol: (§5) Human hepatoblastoma cells, HepG2 cells were obtained from the American Type Culture Collection and maintained in RPMI-1640 medium (GIBCO, Grand Island, N.Y.) supplemented with 10% fetal bovine serum (GIBCO), 100 units/ml of penicillin, […] of streptomycin, […] of amphotericin (Sigma Chemical Co.), and 4 mM L-glutamine (GIBCO). The cell cultures were incubated at 37° C. in a humidified CO2 (5%) atmosphere. The cell number in untreated and 9NC-treated cultures was determined with the aid of cell counter (Coulter Electric, Inc., Hialeah, Fla.) and cell viability was monitored by trypan blue dye exclusion.
This inhibitory effect was not associated with cell death as assessed by trypan blue dye exclusion.

HepG2 cells [5] = assay: BrdU incorporation ELISA, DNA synthesis; assay type: cell-based, Human; conditions: 20 nM; 72 h
Protocol: as §5
DNA synthesis was measured by 5-bromo-2′-deoxy-uridine (BrdU) incorporation into cellular DNA following 24 h and 72 h. treatment with 9NC using the Cell Proliferation Assay Kit-BrdU/ELISA (Boehringer Mannheim Corp.). Inhibition of DNA synthesis correlated with the length of 9NC treatment and the concentration of 9NC in the cell culture.

HepG2 cells [6] = assay: Phase contrast microscopy, cell size; assay type: cell-based, Human; conditions: 9NC-treated cells
Excerpt: After 3 to […] of treatment the morphology of the cells remained stable with very little change during the three to four week culture period. Overall, cells appeared to be healthy and metabolically active, and resembled the morphology of primary human hepatocytes grown on plastic surfaces. Virtually no cell proliferation was observed following removal of 9NC and the cells maintained a differentiated phenotype without growth.

HepG2 cells [7] = assay: Cell Proliferation Kit-XTT, metabolic activity; assay type: cell-based, Human; conditions: 20 nM; 72 h
Protocol: The effect of 9NC (5 to 80 nM) on cell proliferation and DNA synthesis was evaluated by the Cell Proliferation Kit-XTT (Boehringer Mannheim Corp., IN), a non-radioactive, calorimetric ELISA assay which reflects mitochondrial dehydrogenase activity. The assay is based on the cleavage of the yellow tetrazolium salt XTT to form an orange formazan dye by dehydrogenase activity in active mitochondria. This conversion occurs only in living cells and correlates with their overall metabolic activity.
as §5
9NC was semisynthesized from CPT and purified as described by Wani, M. C. et al. (J. Med. Chem. 29:2358-2363 (1986)). A fine suspension of 9NC (10 μM) was prepared in polyethylene glycol (PEG 400; Aldrich, Milwaukee, Wis.), divided into small aliquots and stored at −80° C. until used. […]

[8] = tested on: cells in medium containing 0.5% FBS; assay: SDI-1 antisense oligonucleotide, tritiated thymidine incorporation in low serum; assay type: cell-based; conditions: 1, 2 or 5 μM on Days 1, 3, 5; harvested day 7
Protocol: Cells were cultured in medium containing 10% fetal bovine serum (FBS) for approximately one week, at which time the medium was replaced with medium containing 0.5% FBS. The cells were divided into control cells and experimental cells. On Day 1, experimental cells were provided with either 1, 2 or 5 μM of the above-described oligonucleotide; Control cells received no oligonucleotide. On Day 3, and again on Day 5, all cells received fresh medium containing 0.5% FBS; experimental cells received additional oligonucleotides (1, 2 or 5 μM). On Day 6, tritiated thymidine was added to the culture media and the cells were harvested on day 7.

cdk2 protein = biological target: T2, cdk2 protein (Homo sapiens, UniProt P24941); assay: Binding of in vitro translated SDI-1 deletion mutants to purified cdk2, anti-cdk2 immunoprecipitation; conditions: 45 μl translation product, 1 ug cdk2, 4° C.
T2 construct: host or cells: baculovirus expression system
Protocol: To determine whether the DNA synthesis inhibition caused by these mutants was occurring through inhibition of cdk kinases, the binding of in vitro translated deletion mutant proteins products with purified cdk2protein was examined. Thus, the various deletion mutants of SDI-1 were translated in reticulocyte lysates (Promega) using pBluescript based plasmids as transcription templates for the T7 RNA polymerase. For in vitro binding, 45 μl of the translation product was added to 500 μl binding buffer (50 mM Tris/HCl, pH 7.5, 120 mM NaCl, 2 mM EDTA, 0.1% NP-40, 1 mM NaF, 0.1 m.M sodium vanidate, 5 μg/ml leupeptin, 5 μg/ml soybean trypsin inhibitor, 5 μg/ml aprotinin) containing 1 ug cdk2 protein purified from a bacculovirus expression system. The mixture was gently rocked for 1 hour at 4° C. and then 7.5 μg anti-cdk2 rabbit polyclonal antibody was added. Mixing was continued for 1 hour at 4° C. The immunocomplex was absorbed by incubation with 40 μl protein G plus A beads for 2 hr. The matrices were then washed three times with 0.5 ml of binding buffer prior to electrophoresis and autoradiography.

Molecule: CO[C@@]12[C@H](COC(N)=O)C3=C(C(=O)C(C)=C(N)C3=O)N1C[C@@H]1N[C@@H]12 [Mitomycin C, mitomycin C]
SDI-1 message level (Control = 1) (SDI-1 message in TE85): 2.5
% Growth Arrest [1]: 100%
SDI-1 Level (Fold induction of SDI-1 at 24 hour level) (SDI-1 mRNA): 2.8 Fold induction

Molecule: GST-SDI-1 fusion protein: Schistosoma japonicum GST 1-226, hinge Pro-Arg-Gly-Asp-Pro-Pro-Ala, SDI-1; SEQ ID NO:11; printed as SDI-1 in Table 8
amount giving half maximal inhibition of histone H1 kinase activity (cyclin/cdk2 complexes): 250 ng
quiescence of exposed young cells (young cells): exhibited quiescence
detection of fusion protein within the cells (young cells; provided to young cells): detectable within the cells

Molecule: Cn1c(=O)c2c(ncn2C)n(C)c1=O [caffeine]
effect on SDI-1 expression ([2]; caffeine (1 mM) alone): no appreciable effect
effect on 9NC-dependent induction of SDI-1 expression ([2]; simultaneous addition of caffeine (1 mM) and 9NC): abrogated

SDI-1 Level (Fold induction of SDI-1 at 24 hour level) (SDI-1 mRNA): 6.1 Fold induction
Molecule: CCCCC[C@H](O)/C=C/[C@H]1C=CC(=O)[C@@H]1C/C=C\CCCC(=O)O [prostaglandin A2]
% Growth Arrest [1]: 100%

Molecule: OO [H2O2, hydrogen peroxide]
SDI-1 message level (Control = 1) [3]: 3.3
SDI-1 message level (Control = 1) (SDI-1 message in TE85): 4.0
% Growth Arrest [1]: 95%

Molecule: CC[C@@]1(O)C(=O)OCc2c1cc1n(c2=O)Cc2cc3c([N+](=O)[O-])cccc3nc2-1 [9NC]
decrease in cell numbers (HepG2 cells [4]): at least 2 fold
decrease in DNA synthesis (HepG2 cells [5]): at least 4 fold
time at which SDI-1 gene expression reached maximum ([2]; 20 nM, 0.5-24 h): 24 h
increase in SDI-1 expression (SDI-1/GAPDH) ([2]; 20 nM, 72 h): At least 3 fold
increased cell size (HepG2 cells [6]): 2 to 5 fold
suppression of metabolic activity (HepG2 cells [7]): approximately 20%

Molecule: AGCCGGTTCTGACATGGCG (chemistry not given here) [antisense oligonucleotide]
tritiated thymidine incorporated into DNA relative to control cells [8]: increase

Molecule: COc1cc([C@@H]2c3cc4c(cc3[C@@H](O[C@@H]3O[C@@H]5CO[C@@H](C)O[C@H]5[C@H](O)[C@H]3O)[C@H]3COC(=O)[C@H]23)OCO4)cc(OC)c1O [etoposide]
% Growth Arrest [1]: 100%

Molecule: COS(C)(=O)=O [MMS, methyl methane sulfonate]
% Growth Arrest [1]: 53%

Molecule: [Cl][Cd][Cl] [CdCl2, cadmium chloride]
% Growth Arrest [1]: 0%
SDI-1 Level (Fold induction of SDI-1 at 24 hour level) (SDI-1 mRNA): 1.3 Fold induction

Molecule: bleomycin
% Growth Arrest [1]: 100%
SDI-1 Level (Fold induction of SDI-1 at 24 hour level) (SDI-1 mRNA): 11.8 Fold induction

Molecule: NC(=O)NO [hydroxyurea]
SDI-1 message level (Control = 1) [3]: 2.5
SDI-1 message level (Control = 1) (SDI-1 message in TE85): 7.5
% Growth Arrest [1]: 100%

binding to purified cdk2 protein (cdk2 protein): bound cdk2 protein efficiently
B1: 72-77: SDI-1 mutant with amino acids 72-77 deleted, HA tagged (protein)
chain: MSEPAGDVRQNPCGSKACRRLFGPVDSEQLSRDCDALMAGCIQEARERWNFDFVTETPLEGDFAWERVRGLPRGLPTGPRRGRDELGGGRRPGTSPALLQGTAEEDHVDLSLSCTLVPRSGEQAEGSPGGPGDSQGRKRRQTSMTDFYHSKRRLIFSKRKP
modifications: left off: small tags and cut ends
notes: SDI-1 mutant with amino acids 72-77 deleted, HA tagged
